The record followed here is article PMC13463089, “PA200 modulates immunoproteasome structure and activity” (Nature Communications, 2026).

Experiment [1] addresses T1, i20S-PA200 complex (PA200 / PSME4 bound to the immunoproteasome) (Homo sapiens, UniProt Q14997).
T1 construct: recombinant purified human PA200, about 200 kDa, one or two copies per 20S; human i20S commercial (cryo-EM) or purified from HEK293-EBNA (activity); with Proteasome subunit beta type-8; Proteasome subunit beta type-9; Proteasome subunit beta type-10; Proteasome subunit alpha type-6; Proteasome subunit alpha type-2; Proteasome subunit alpha type-4; Proteasome subunit alpha type-7; Proteasome subunit alpha type-5; Proteasome subunit alpha type-1; Proteasome subunit alpha type-3; Proteasome subunit beta type-3; Proteasome subunit beta type-2; Proteasome subunit beta type-1; Proteasome subunit beta type-4
Description: cryo-EM structure ([…] and […] A). The following applies: two IP6 molecules in the two positively charged grooves of PA200; density assigned by analogy to s20S-PA200 structures. It counts as binding.

Experiment [2] has as its target T2, s20S-PA200 complex (PA200 / PSME4 bound to the standard proteasome) (Homo sapiens, UniProt Q14997).
T2 construct: recombinant purified human PA200 mixed with purified human s20S; with Proteasome subunit beta type-5; Proteasome subunit beta type-6; Proteasome subunit beta type-7; Proteasome subunit alpha type-6; Proteasome subunit alpha type-2; Proteasome subunit alpha type-4; Proteasome subunit alpha type-7; Proteasome subunit alpha type-5; Proteasome subunit alpha type-1; Proteasome subunit alpha type-3; Proteasome subunit beta type-3; Proteasome subunit beta type-2; Proteasome subunit beta type-1; Proteasome subunit beta type-4
Put plainly: fluorogenic peptide assay of […] activity. The conditions noted are these: PA200 21.5 nM preincubated with 70 uM IP6, s20S 1.5 nM; pH 7.6, 37 C. Format: biochemical.

In experiment [3] the target is T1, i20S-PA200 complex (PA200 / PSME4 bound to the immunoproteasome). Put plainly: fluorogenic peptide assay of […] activity. It counts as biochemical. The conditions noted are these: PA200 21.5 nM preincubated with 70 uM IP6, i20S 1.5 nM; substrates LLVY, ANW, PAL, LRR; pH 7.6, 37 C; activator.

T1 sequence (Q14997 whole entry): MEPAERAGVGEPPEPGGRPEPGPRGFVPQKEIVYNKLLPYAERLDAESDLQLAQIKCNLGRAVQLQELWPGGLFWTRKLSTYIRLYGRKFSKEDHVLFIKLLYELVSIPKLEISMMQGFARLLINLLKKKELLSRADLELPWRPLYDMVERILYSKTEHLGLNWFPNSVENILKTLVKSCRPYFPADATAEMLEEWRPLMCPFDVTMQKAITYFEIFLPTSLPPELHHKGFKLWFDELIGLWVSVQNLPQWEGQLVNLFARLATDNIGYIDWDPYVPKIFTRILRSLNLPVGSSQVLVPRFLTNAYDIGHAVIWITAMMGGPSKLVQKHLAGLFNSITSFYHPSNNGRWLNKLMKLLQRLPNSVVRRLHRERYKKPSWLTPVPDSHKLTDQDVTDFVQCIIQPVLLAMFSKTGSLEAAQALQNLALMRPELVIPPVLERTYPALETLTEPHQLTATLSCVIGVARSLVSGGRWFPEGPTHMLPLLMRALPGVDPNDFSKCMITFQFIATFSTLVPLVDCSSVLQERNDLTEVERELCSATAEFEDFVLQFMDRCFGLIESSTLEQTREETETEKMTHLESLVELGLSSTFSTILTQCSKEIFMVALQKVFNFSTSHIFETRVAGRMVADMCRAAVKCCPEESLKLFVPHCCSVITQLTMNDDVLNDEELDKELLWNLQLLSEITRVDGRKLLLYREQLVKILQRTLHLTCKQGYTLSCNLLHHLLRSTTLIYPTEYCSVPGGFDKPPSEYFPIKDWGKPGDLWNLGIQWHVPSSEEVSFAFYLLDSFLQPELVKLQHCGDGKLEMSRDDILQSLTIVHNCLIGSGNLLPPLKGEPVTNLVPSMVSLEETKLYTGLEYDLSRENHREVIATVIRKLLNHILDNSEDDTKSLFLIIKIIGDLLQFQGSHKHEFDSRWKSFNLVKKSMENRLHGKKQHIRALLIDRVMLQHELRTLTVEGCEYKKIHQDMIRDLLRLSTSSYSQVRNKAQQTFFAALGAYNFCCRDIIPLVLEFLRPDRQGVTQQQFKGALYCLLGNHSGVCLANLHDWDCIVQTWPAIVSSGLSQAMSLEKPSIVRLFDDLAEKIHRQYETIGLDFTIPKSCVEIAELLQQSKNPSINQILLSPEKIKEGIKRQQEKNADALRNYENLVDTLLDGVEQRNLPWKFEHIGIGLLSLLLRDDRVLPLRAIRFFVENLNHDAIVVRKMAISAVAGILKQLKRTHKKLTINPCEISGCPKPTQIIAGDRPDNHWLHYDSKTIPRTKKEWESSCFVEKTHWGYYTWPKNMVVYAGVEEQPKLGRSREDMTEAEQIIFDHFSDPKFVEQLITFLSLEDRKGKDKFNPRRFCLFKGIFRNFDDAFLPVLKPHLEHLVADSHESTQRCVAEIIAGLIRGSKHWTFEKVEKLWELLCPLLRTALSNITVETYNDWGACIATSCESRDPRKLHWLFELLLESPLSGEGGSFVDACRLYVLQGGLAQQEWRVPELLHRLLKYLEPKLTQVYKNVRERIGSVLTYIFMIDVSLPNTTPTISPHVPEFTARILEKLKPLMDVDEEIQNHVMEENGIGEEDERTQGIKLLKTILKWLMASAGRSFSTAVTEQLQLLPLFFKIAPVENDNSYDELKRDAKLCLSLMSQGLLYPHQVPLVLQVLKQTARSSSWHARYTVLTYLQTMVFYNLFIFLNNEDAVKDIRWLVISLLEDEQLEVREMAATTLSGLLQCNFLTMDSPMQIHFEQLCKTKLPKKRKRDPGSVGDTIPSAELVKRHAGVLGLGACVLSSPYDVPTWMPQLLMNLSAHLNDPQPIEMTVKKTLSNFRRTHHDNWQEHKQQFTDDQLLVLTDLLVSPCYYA
T1 sequence (P28062 73-276 partner): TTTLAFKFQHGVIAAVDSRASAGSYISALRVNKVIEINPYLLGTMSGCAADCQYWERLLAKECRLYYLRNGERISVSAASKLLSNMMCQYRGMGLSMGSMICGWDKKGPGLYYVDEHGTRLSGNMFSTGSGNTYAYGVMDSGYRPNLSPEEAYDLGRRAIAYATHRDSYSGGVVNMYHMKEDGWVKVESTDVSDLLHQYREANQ
T1 sequence (P28065 21-219 partner): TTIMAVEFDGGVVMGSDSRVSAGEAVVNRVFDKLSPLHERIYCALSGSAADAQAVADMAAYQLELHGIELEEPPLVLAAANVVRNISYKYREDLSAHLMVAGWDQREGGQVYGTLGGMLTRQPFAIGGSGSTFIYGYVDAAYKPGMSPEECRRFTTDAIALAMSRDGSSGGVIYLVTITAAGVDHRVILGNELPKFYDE
T1 sequence (P40306 40-273 partner): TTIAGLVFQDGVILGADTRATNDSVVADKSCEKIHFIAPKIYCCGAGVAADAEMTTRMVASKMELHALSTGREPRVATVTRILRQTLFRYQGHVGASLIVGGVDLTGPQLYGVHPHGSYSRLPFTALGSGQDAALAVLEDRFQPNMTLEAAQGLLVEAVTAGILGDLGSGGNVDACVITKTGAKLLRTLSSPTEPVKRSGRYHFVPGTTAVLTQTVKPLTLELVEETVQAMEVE
T2 sequence (Q14997 whole entry): as the sequence (Q14997 whole entry) above
T2 sequence (P28074 60-263 partner): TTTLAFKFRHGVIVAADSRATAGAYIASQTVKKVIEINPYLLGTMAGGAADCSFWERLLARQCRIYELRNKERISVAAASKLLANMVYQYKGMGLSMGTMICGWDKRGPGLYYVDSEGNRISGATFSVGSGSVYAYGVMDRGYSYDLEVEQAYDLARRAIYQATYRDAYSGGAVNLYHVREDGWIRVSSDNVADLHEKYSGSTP
T2 sequence (P28072 35-239 partner): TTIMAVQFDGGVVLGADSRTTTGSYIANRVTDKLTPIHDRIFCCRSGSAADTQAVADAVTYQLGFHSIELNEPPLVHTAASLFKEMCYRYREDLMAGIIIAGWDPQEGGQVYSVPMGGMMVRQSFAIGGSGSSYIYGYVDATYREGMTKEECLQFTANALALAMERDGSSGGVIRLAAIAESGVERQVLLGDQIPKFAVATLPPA
T2 sequence (Q99436 44-277 partner): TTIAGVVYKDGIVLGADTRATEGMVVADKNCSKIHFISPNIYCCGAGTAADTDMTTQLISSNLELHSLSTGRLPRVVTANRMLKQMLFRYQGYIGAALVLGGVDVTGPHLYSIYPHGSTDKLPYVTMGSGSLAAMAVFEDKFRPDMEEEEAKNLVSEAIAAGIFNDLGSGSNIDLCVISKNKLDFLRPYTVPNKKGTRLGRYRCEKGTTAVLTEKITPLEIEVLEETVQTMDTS

On to `O=P(O)(O)O[C@H]1[C@H](OP(=O)(O)O)[C@@H](OP(=O)(O)O)[C@H](OP(=O)(O)O)[C@@H](OP(=O)(O)O)[C@H]1OP(=O)(O)O` [IP6], for which the “cryo-EM structure (2.85 and 2.89 A)” value in experiment [1] is recorded as “we assigned these densities to two molecules of IP6”. For the same compound, the relative activity result in experiment [2] was “Effect of phytic acid (IP6) on PA200-activated i20S (B, dark blue bars) and s20S”; in experiment [3] it was “strong increase of the three activities that are specific for the i20S”.
